Data reported in patent US7314720B2, “Method of diagnosing non-alcoholic steatohepatitis (nash) using molecular markers” (One Way Liver Genomic, S.L., priority 2002, dated 2008).

System: PHB1
Experiment: PHB1 level regulation in cultured rat hepatocytes (Western blot)
Assay type: cell-based
Conditions: for effect on PHB1 levels: 24 h incubation under standard conditions, 100 μM methionine or 4 mM AdoMet in culture media
Protocol: FIG. 5 illustrates PHB1 level regulation by AdoMet in cultured rat hepatocytes. PHB1 levels were measured in rat hepatocytes cultured for 12 or 24 hours in the presence or absence of 100 μM methionine, 4 mM AdoMet or 20 mM cycloleucine. Liver extracts (15 μg/lane) were analyzed by Western blotting using specific antibodies. To ensure equal loading, the membranes were stained with red Ponceau. A representative blot from three independent experiments is shown. Hepatocytes were isolated from male Wistar rats (200-250 g) by perfusion with collagenases, as previously described ([…]., et al., Gastroenterology, 1998, 114:364-371). Once isolated, hepatocytes were cultured according to García-Trevijano et al. […] Cell viability was measured by trypan blue exclusion, and no significant differences were observed between the controls and any of the different treatments performed in this study. Protein extraction and western blotting were performed as previously described ([…]., et al., Oncogene, 1995, 10:963-971; Ruiz, F., et al., Hepatology, 1998, 28:1051-1057). Briefly, equal amounts of protein (15 μg) were resolved in SDS/12.5% polyacrylamide gels. Proteins were electrophoretically transferred to nitrocellulose membranes. Membranes were probed with anti-MAT (Ruiz, F., et al., Hepatology, 1998, 28:1051-1057), anti-PHB1, anti-β ATPase and anti-COX I and II. A secondary antibody conjugated to horseradish peroxidase was used. Blots were developed by chemiluminescence (Dupont).

SMILES | effect on PHB1 levels | decrease of PHB1 in the absence of methionine (exogenous addition of 4 mM AdoMet after 12 hours culture in the absence of methionine) | down-regulation of PHB1 (20 mM CL added to culture medium) [%]
C[S+](CC[C@H](N)C(=O)[O-])C[C@H]1O[C@@H](n2cnc3c(N)ncnc32)[C@H](O)[C@@H]1O (stereo partly shown) [AdoMet, S-adenosylmethionine] | no effect | prevented the decrease of PHB1 | 
CSCC[C@H](N)C(=O)O [methionine] | no effect |  | 
NC1(C(=O)O)CCCC1 [CL, cycloleucine] |  |  | 55
